{"source": "patent US20200188382A1", "about": "“PHARMACEUTICAL COMPOSITION FOR INDUCING PROGRAMMED CELL DEATH IN CANCER CELLS” (KYOTO UNIVERSITY, priority 2016, published 2020)", "format_in_all_cases": "cell-based", "key": {"[1]": {"tested_on": "Human cervical cancer cell line HeLa", "test": "Antitumor activity: number of living cells by CFSE-DA staining and WST-8 assay", "conditions": "5, 10, or 20 μM, 4 days at 37° C., MEM containing 5% FBS, CFSE-DA and WST-8, FIGS. 2 and 3", "description": "The antitumor effect on cancer cells was confirmed through measurement of the number of living cells using two methods.\nSpecifically, Compound 1 prepared as described above was added to cancer cells that were to be cultured under the following conditions such that the concentration of Compound 1 was 5, 10, or 20 μM, cancer cells were cultured for 4 days, and then an effect of Compound 1 on cancer cells was confirmed through fluorescence staining of living cells using CFSE-DA (FIG. 2) and WST-8 assays (FIG. 3).\n(§1) Cancer cells: Human cervical cancer cell line HeLa\nNutrient sources of culture medium: MEM containing 5% FBS\nCulture time after Compound 1 or DMSO was added: 4 days at 37° C.\nCFSE: 5- or 6-(N-Succinimidyloxycarbonyl)fluorescein 3′,6′-diacetate"}, "[2]": {"tested_on": "a plurality of cancer cell lines", "test": "Antitumor effect on a plurality of cancer cell lines"}, "[3]": {"tested_on": "Human cervical cancer cell line HeLa", "test": "Programmed cell death under glucose starvation, WST-8 assay", "conditions": "16 hours at 37° C., MEM with 0.1% Glucose or 0.1% Galactose (No Glucose) and 5% FBS, FIG. 6", "description": "It was confirmed that programmed cell death of cancer cells by Compound 1 was facilitated under glucose starvation.\nSpecifically, the nutrient source of a culture medium used when Compound 1 was applied to cancer cells was set to either glucose (Glc) or galactose (Gal), cancer cells were cultured for 16 hours, and the survival rate of cancer cells was measured using WST-8 assays.\nas §1\nCulture medium before Compound 1 was added: MEM containing 10% FBS\nCulture medium after Compound 1 was added: MEM containing 0.1% Glucose and 5% FBS, or containing 0.1% Galactose and 5% FBS (No Glucose)\nCulture time after Compound 1 was added: 16 hours at 37° C."}, "[4]": {"tested_on": "Human cervical cancer cell line HeLa", "test": "Induction of production of NO in cancer cells (DAF-FM DA, flow cytometry)", "conditions": "10 μM, 10 hours at 37° C., MEM (No Glucose) containing 0.1% Galactose and 5% FBS, FIG. 1", "description": "The amount of nitric oxide (NO) produced in cancer cells was measured using a nitric oxide detection indicator. Specifically, Compound 1 prepared as described above was added to cancer cells that were to be cultured under the following conditions such that the concentration of Compound 1 was 10 μM, and the cancer cells were cultured for 10 hours, then flow cytometry was performed while the NO detection indicator was in contact therewith, and fluorescence intensity and cell number distribution were measured.\nas §1\n(§2) Nutrient sources of culture medium: MEM (No Glucose) containing 0.1% Galactose and 5% FBS\nCulture time after Compound 1 or DMSO was added: 10 hours at 37° C.\nNitric oxide detection indicator: Diaminofluorescein-FM diacetate (DAF-FM DA)"}, "[5]": {"tested_on": "Human cervical cancer cell line HeLa", "test": "NO dependency of caspase 3 activation (NO scavenger / NO synthesis inhibitor), flow cytometry", "conditions": "FIG. 5", "description": "It was confirmed that the activity of Caspase-3 above was NO-dependent, using two types of methods in which an NO scavenger and an NO synthesis inhibitor were used.\nThat is, first, the NO scavenger (0.2 mM) or NO synthesis inhibitor (4 mM) described above was added to cancer cells that were to be cultured under the following conditions, and the cancer cells were cultured for 1 hour, Compound 1 prepared as described above was added thereto such that the concentration of Compound 1 was 10 μM, the cancer cells were cultured for 15 hours, flow cytometry was then performed while a caspase 3 substrate and a membrane impermeable DNA stain were in contact therewith, and thus two-color dot plots were created.\nas §1, §2\nCulture time after NO scavenger and NO synthesis inhibitor were added: 1 hour at 37° C.\nNO scavenger: Carboxy-PTIO (cPTIO)\nNO synthesis inhibitor: L-NAME (NO synthatase inhibitor)\nCulture time after Compound 1 or DMSO was added: 15 hours\nCaspase 3 substrate: NucView (trademark, Biotium) 488\nMembrane impermeable DNA stain: DRAQ7 (trademark, BioStatus)"}}, "data": [{"smiles": "O=S(=O)(Nc1cc(C(F)(F)F)ccc1N1CC[C@@H]2CCCC[C@H]2C1)c1ccc(F)cc1", "note": "[Compound 1]", "values": [{"measurement": "antitumor effect (survival rate of cancer cells)", "setting": "[1]", "value": "antitumor effect of reducing the survival rate of cancer cells"}, {"measurement": "antitumor effect", "setting": "[2]", "value": "exhibited an antitumor effect on a plurality of cancer cell lines"}, {"measurement": "programmed cell death (survival rate) in glucose vs galactose medium", "setting": "[3]", "value": "facilitated in a glucose depleted state"}, {"measurement": "production of NO in cells", "setting": "[4]", "value": "enhanced"}, {"measurement": "NO dependency of induced programmed cell death", "setting": "[5]; 10 μM, cPTIO or L-NAME", "value": "NO-dependent"}, {"measurement": "ratio of cells with DRAQ7 negative and NucView 488 positive", "setting": "[5]; Compound 1 at 10 μM alone, 15 hours, no glucose/0.1% Galactose, control 7.8%", "value": 36.1, "unit": "%"}, {"measurement": "ratio of cells with DRAQ7 negative and NucView 488 positive under the presence of cPTIO", "setting": "[5]; Compound 1 at 10 μM, 15 hours, after 1 hour with NO scavenger cPTIO 0.2 mM", "value": 13.9, "unit": "%"}, {"measurement": "ratio of cells with DRAQ7 negative and NucView 488 positive under the presence of L-NAME", "setting": "[5]; Compound 1 at 10 μM, 15 hours, after 1 hour with NO synthesis inhibitor L-NAME 4 mM", "value": 22.7, "unit": "%"}]}]}
